Changes are numbered by the printed parent chain. Where two headings read alike, the source gives them in different places.
How the values were obtained:
Format in all cases: binding
[1] = tested on: PPARγ LBD, deletion of helix 12 / SMRT peptide; experiment: Fluorescence anisotropy, SMRT peptide to helix 12 deleted (DH12) PPARγ LBD
Procedure: (§1) These samples were then plated as usual.

[2] = target: T1, PPARγC313A,Q322C-BTFA LBD / NCoR peptide (Homo sapiens, UniProt P37231, C313A/Q322C); experiment: Fluorescence anisotropy, NCoR peptide to PPARγC313A,Q322C-BTFA LBD; settings: Supp. Table 2
T1 construct: 6× His tag with TEV recognition site (N, cleaved yes); made in house; host or cells: E. coli BL21 (DE3) gold
T1 sequence (P37231 230-505 C313A/Q322C): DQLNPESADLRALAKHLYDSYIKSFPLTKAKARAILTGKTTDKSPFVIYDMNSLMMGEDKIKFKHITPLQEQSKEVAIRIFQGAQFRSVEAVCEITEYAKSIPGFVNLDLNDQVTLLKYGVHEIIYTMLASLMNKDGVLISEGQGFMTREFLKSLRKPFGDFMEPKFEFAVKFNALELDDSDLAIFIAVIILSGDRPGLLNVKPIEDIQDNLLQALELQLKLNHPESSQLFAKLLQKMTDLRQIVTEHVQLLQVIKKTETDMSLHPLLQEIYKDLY
Procedure: as §1

[3] = target: T2, K347A PPARγ LBD / SMRT peptide (Homo sapiens, UniProt P37231, K347A); experiment: Fluorescence anisotropy, SMRT peptide to K347A PPARγ LBD
T2 construct: 6× His tag with TEV recognition site (N, cleaved yes); made in house; host or cells: E. coli BL21 (DE3) gold
T2 sequence (P37231 230-505 K347A): T1 sequence (P37231 230-505 C313A/Q322C) with A84C, C93Q, K118A
Procedure: as §1

[4] = target: T3, PPARγ LBD (wt) / SMRT CoRNR box peptide (Homo sapiens, UniProt P37231); experiment: Fluorescence anisotropy, SMRT peptide to wt PPARγ LBD (alone or ligand bound)
T3 construct: 6× His tag with TEV recognition site (N, cleaved yes); made in house; host or cells: E. coli BL21 (DE3) gold
T3 sequence (P37231 230-505): T1 sequence (P37231 230-505 C313A/Q322C) with A84C, C93Q
Procedure: as §1

With `O=C(Nc1ccccc1)c1cc([N+](=O)[O-])ccc1Cl` [GW9662] the “SMRT Kd, wt vs DH12 mean difference ± SE” value ([1]; Supp. Fig. 12) was 314 ±631, the Kd ([1]; Supp. Fig. 12, read-out: SMRT dissociation constant average, DH12) was 320 nM and the Kd ([1]; run SMRT FP 4 5 18, read-out: SMRT dissociation constant, DH12) was 361 nM. For the same molecule, the Kd ([1]; run SMRT FP 4 6 18, read-out: SMRT dissociation constant, DH12) was 301 nM, the Kd ([1]; run SMRT FP 4 10 18, read-out: SMRT dissociation constant, DH12) was 298 nM and the “NCoR fold change (labeled/wt), PPARγC313A,Q322C-BTFA” value [2] was 1.3. The Kd ([2]; read-out: NCoR Kd, PPARγC313A,Q322C-BTFA, covalent ligands T0070907, GW9662 expected to be apo-like) was 348 nM, the “SMRT Kd, wt vs K347A mean difference ± SE” value ([3]; Supp. Fig. 12) was 64 ± 631 and the Kd ([3]; Supp. Fig. 12, read-out: SMRT dissociation constant average, K347A) was 570 nM. The Kd ([3]; run SMRT FP 4 5 18, read-out: SMRT dissociation constant, K347A) was 527 nM, the Kd ([3]; run SMRT FP 4 6 18, read-out: SMRT dissociation constant, K347A) was 638 nM and the Kd ([3]; run SMRT FP 4 10 18, read-out: SMRT dissociation constant, K347A) was 546 nM. For the same molecule, the Kd ([4]; Supp. Fig. 12, read-out: SMRT dissociation constant average, wt) was 634 nM, the “SMRT Kd mean difference ±SE, Apo vs ligand” value ([4]; Supp. Table 4, wt, 9 df) was 923 ±178 and the Kd ([4]; run SMRT FP 4 5 18, read-out: SMRT dissociation constant, WT) was 445 nM. For the same molecule, the Kd ([4]; run SMRT FP 4 6 18, read-out: SMRT dissociation constant, WT) was 482 nM, the Kd ([4]; run SMRT FP 4 10 18, read-out: SMRT dissociation constant, WT) was 976 nM and the “effect on affinity/recruitment of SMRT CoRNR peptide” value ([4]; versus apo) was “increase affinity”.

From paper PMC6925260 (Nature Communications, 2019)
